Legend:
[1] = tested on: normal human bronchial epithelial cells (HBE); experiment: CCK-8 cellular selectivity assay, HBE; type: cell-based
Method: (§1) The H1975 human NSCLC cell line was obtained from ATCC. A431 human epithelial carcinoma and HBE human bronchial epithelial cell lines were kind gifts from Fuheng Biological Company Ltd. (Shanghai, China) and YuXi Biotech Company (Jiangsu, China), respectively. The cells were maintained in RPMI 1640 or DMEM (Gibco®, Thermo Fisher Scientific Inc., Waltham, MA, USA) containing 10% fetal bovine serum (FBS, Gibco®) and 1% penicillin-streptomycin (Beyotime Company, Shanghai, China) at 37 °C in a 5% CO2 incubator.
(§2) A total of 3000 cells of H1975 or HBE and 5000 cells of A431 were seeded for each well into a 96-well plate and cultured in 10% FBS respective growth medium overnight. Various concentrations (0–20 μM) of each compound were then added in triplicate to the cells. After 72 h of incubation, 10 μL of CCK-8 solution (5.0 mg/mL, Biotool Company, Kirchberg, Switzerland) was added to each well and the cells continued to culture for 4 h. The optical density (OD) was determined at 450 nm with a microplate reader (Thermo Fisher Scientific, Waltham, MA, USA). IC50 values were calculated employing GraphPad Prism version 8.0.

[2] = tested on: H1975 non-small cell lung cancer (NSCLC) cells; experiment: CCK-8 cell viability assay, H1975; type: cell-based; settings: Homo sapiens, NCI-H1975, CCK-8, 72 h, mean ± SD of three experiments, read-out: Antiproliferative Activity IC50, H1975
Method: as §1, §2

[3] = tested on: A431 human epithelial carcinoma cells; experiment: CCK-8 cell viability assay, A431; type: cell-based; settings: A-431, CCK-8, 72 h, mean ± SD of three experiments, read-out: Antiproliferative Activity IC50, A431
Method: as §1, §2

H1975 cells [4] = experiment: Scratch (cell migration) assay; type: cell-based, human; settings: H1975, 0.1, 0.5, and 1 μM, 24 h
Method: H1975 cells were seeded in 6-well plates and incubated for 12 h. When cells were grown to 90–100% confluency in a monolayer, wounds were generated using a pipette tip. […] The images were captured to record the status of cells near the scratch lines at the beginning and after 12 and 24 h.

FAK kinase = target: T1, FAK kinase (Homo sapiens, UniProt Q05397); experiment: ADP-Glo kinase enzymatic assay; type: biochemical; settings: mean ± SD of three independent experiments
T1 construct: purchased Promega Corporation V9301
T1 sequence (Q05397 393-698 limits assumed): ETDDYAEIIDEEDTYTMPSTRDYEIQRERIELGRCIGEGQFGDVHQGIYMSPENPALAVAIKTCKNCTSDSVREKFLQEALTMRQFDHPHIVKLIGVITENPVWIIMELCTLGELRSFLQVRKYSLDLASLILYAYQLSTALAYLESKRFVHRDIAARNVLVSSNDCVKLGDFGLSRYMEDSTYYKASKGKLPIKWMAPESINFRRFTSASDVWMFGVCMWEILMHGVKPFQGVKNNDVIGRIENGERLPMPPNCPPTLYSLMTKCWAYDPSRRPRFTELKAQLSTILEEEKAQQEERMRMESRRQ
Method: The ADP-Glo™ Kinase Assay Kit and FAK Kinase Enzyme (Catalog. V9301) were purchased from Promega Corporation (Madison, WI, USA). The experiments were performed according to the detailed and complete protocols of the manufacturer. Briefly, the concentration of FAK determined by optimization experiments was 0.1 μg/μL. Suitable concentration gradients from 1.6 to 1000 nM were set for all the tested compounds. A kinase reaction buffer, a substrate/ATP mixture, and a FAK solution were prepared right before use. The 5 μL kinase reaction consisted of 1 μL of compound solution, 2 μL of substrate/ATP mixture, and 2 μL of FAK solution. The control without enzyme was provided by 3 μL of kinase reaction buffer and 2 μL of substrate/ATP mixture. The negative control was prepared using 1 μL of kinase reaction buffer instead of a compound solution. The kinase reactions were added to a 384-well plate and incubated at room temperature for 60 min, then 5 μL of ADP-Glo™ Reagent was added to stop the kinase reaction and deplete the unconsumed ATP, and incubated at room temperature for 40 min. After adding 10 μL of Kinase Detection Reagent, the plate was incubated at room temperature for 30 min and then luminescence was recorded (integration time 0.5–1 s) on a TriStar® LB942 Multimode Microplate Reader (BERTHOLD TECHNOLOGIES GmbH & Co. KG., Bad Wildbad, Germany). Curve fitting and data presentations were performed using GraphPad Prism version 8.0.

H1975 cells [5] = experiment: Annexin V-FITC/PI flow cytometry apoptosis assay; type: cell-based, human; settings: H1975, 0.1, 0.5, 1 μM, 48 h
Method: (§3) H1975 cells were seeded at a density of 1 × 10^5 cells/well into 6-well plates for 24 h and then exposed to different concentrations of inhibitors for 48 h. The cells were harvested. (1) The cells were stained with Annexin V-FITC (5 µL)/propidium iodide (5 µL), and the samples were detected and flow cytometry (Becton-Dickinson, Franklin Lakes, NJ, USA) was performed to quantify the number of apoptotic cells. (2) The cells were stained with propidium iodide (PI) in the dark for 30 min, and then analyzed for cell cycle distribution by the flow cytometry assay.

H1975 cells [6] = experiment: AO/EB staining assay; type: cell-based, human; settings: H1975, 0.1, 0.5, and 1 μM
Method: H1975 cells at a density of 1 × 10^5 cells/well in 6-well plates were incubated for 24 h. After discarding the original culture medium, different concentrations of inhibitors were used. The cells were incubated for 48 h and then washed with phosphate-buffered saline (PBS) three times. Cells were subsequently incubated in the dye mix containing 1.0 µg/mL of AO and 1.0 µg/mL of EB in PBS at 37 °C for 5 min, and then washed with PBS. The apoptotic, necrotic, and live cells were examined under the fluorescent inverted microscope (OLYMPUS, Tokyo, Japan).

H1975 cells [7] = experiment: Cell cycle analysis by PI flow cytometry; type: cell-based, human; settings: 48 h
Method: as §3

IC50 [2]: 44 ± 11 nM
IC50 [3]: 119 ± 36 nM
IC50 (FAK kinase): 47 ± 6 nM
SMILES: O=C(NCCO)c1ccccc1Nc1nc(Nc2ccc(CN3CCOCC3)cc2)ncc1Cl [Compound 8a, 2-((5-Chloro-2-((4-(morpholinomethyl)phenyl)amino)pyrimidin-4-yl)amino)-N-(2-hydroxyethyl)benzamide]
IC50 ([1]; Homo sapiens, Epithelial cell, HBE normal cells, CCK-8, 72 h, mean ± SD of three experiments, read-out: Antiproliferative Activity IC50, HBE): 1040 ± 266 nM
SI Values (selectivity index) ([1]; IC50 for HBE cell line/IC50 for H1975 cell line): 24
Cell migration (in words) (H1975 cells [4]): reduced migration distances
Apoptosis induction (in words) (H1975 cells [5]): substantially increased the extent of apoptosis in H1975 cells in a dose-dependent manner
Apoptotic morphology (in words) (H1975 cells [6]): exhibited certain morphological phenomena characteristic of apoptosis
%G1 (G0/G1 phase) cells (H1975 cells [7]; H1975, 1.0 μM): 39.06%
%G2 (G2/M phase) cells (H1975 cells [7]; H1975, 1.0 μM): 37.29%
%S phase cells (H1975 cells [7]; H1975, 1.0 μM): 23.65%
Cell cycle arrest (in words) (H1975 cells [7]; H1975, 0.1, 0.5, and 1 μM): induced cell cycle arrest in S/G2 phase in a dose-dependent manner

Source: publication PMC8304610, “Discovery of Novel 2,4-Dianilinopyrimidine Derivatives Containing 4-(Morpholinomethyl)phenyl and N-Substituted Benzamides as Potential FAK Inhibitors and Anticancer Agents” (Molecules, 2021)
